# Measured values from patent US9278094B2, “Treatments for depression and other diseases with a low dose agent” (PharmoRx Therapeutics, Inc., priority 2013, dated 2016).
# How the values were obtained:
# [1] = tested on: patients with depression; test: Patient responses to low dose naltrexone treatment of depression (case reports)
# Description: Patient #1: A middle aged person suffered severe depression with recurrent major depressive episodes. […] The former pharmacologic regimen was otherwise unchanged.
# Patient #3: A patient presented with treatment-resistant depression. The patient was also diagnosed with Attention Deficit Disorder. The patient initially was treated with s-citalopram 15 mg, augmented by dextro-amphetamine.
# Patient #4: A patient weighing approximately 60 kg had suffered severe unremitting depression. […] Subsequently, the patient was prescribed 5 mg naltrexone daily with continuation of s-citalopram.
# They were being treated with buproprion XL 300 mg, augmented with melatonin 3 mg and N-acetyl-cysteine 1200 mg.
# Patient #6: A patient with multiple major depression episodes, anhedonia, apathy, low energy and poor sleep was being treated with duloxetine 60 mg and buproprion 75 mg, and mirtazpine 15 mg. […] They also called and e-mailed multiple times per day. They were being treated with Effexor XR 75 mg QHS, Xanax 0.5 mg, and Clonazepam 1.5 mg.
# The patient was then co-administered 1 mg daily of naltrexone with pramipexole.
# Patient #9: A middle-age person suffered severe depression with recurrent major depressive episodes and social anxiety. They were being treated with Adderall 10 mg, levothyroxine 50 mcg, and propranol 10 mg.
# [2] = tested on: patients with breakthrough depression (BTD); test: Clinical testing of low dose naltrexone treatment of depression (double-blind, placebo-controlled); assay type: in vivo, human
# [3] = molecular target: C-terminal pentapeptide of the scaffolding protein filamin A (Homo sapiens, UniProt P21333); details: Wang, Frankfurt, & Burns, 2008; cited from earlier work
# Sequence of C-terminal pentapeptide of the scaffolding protein filamin A (P21333 whole entry): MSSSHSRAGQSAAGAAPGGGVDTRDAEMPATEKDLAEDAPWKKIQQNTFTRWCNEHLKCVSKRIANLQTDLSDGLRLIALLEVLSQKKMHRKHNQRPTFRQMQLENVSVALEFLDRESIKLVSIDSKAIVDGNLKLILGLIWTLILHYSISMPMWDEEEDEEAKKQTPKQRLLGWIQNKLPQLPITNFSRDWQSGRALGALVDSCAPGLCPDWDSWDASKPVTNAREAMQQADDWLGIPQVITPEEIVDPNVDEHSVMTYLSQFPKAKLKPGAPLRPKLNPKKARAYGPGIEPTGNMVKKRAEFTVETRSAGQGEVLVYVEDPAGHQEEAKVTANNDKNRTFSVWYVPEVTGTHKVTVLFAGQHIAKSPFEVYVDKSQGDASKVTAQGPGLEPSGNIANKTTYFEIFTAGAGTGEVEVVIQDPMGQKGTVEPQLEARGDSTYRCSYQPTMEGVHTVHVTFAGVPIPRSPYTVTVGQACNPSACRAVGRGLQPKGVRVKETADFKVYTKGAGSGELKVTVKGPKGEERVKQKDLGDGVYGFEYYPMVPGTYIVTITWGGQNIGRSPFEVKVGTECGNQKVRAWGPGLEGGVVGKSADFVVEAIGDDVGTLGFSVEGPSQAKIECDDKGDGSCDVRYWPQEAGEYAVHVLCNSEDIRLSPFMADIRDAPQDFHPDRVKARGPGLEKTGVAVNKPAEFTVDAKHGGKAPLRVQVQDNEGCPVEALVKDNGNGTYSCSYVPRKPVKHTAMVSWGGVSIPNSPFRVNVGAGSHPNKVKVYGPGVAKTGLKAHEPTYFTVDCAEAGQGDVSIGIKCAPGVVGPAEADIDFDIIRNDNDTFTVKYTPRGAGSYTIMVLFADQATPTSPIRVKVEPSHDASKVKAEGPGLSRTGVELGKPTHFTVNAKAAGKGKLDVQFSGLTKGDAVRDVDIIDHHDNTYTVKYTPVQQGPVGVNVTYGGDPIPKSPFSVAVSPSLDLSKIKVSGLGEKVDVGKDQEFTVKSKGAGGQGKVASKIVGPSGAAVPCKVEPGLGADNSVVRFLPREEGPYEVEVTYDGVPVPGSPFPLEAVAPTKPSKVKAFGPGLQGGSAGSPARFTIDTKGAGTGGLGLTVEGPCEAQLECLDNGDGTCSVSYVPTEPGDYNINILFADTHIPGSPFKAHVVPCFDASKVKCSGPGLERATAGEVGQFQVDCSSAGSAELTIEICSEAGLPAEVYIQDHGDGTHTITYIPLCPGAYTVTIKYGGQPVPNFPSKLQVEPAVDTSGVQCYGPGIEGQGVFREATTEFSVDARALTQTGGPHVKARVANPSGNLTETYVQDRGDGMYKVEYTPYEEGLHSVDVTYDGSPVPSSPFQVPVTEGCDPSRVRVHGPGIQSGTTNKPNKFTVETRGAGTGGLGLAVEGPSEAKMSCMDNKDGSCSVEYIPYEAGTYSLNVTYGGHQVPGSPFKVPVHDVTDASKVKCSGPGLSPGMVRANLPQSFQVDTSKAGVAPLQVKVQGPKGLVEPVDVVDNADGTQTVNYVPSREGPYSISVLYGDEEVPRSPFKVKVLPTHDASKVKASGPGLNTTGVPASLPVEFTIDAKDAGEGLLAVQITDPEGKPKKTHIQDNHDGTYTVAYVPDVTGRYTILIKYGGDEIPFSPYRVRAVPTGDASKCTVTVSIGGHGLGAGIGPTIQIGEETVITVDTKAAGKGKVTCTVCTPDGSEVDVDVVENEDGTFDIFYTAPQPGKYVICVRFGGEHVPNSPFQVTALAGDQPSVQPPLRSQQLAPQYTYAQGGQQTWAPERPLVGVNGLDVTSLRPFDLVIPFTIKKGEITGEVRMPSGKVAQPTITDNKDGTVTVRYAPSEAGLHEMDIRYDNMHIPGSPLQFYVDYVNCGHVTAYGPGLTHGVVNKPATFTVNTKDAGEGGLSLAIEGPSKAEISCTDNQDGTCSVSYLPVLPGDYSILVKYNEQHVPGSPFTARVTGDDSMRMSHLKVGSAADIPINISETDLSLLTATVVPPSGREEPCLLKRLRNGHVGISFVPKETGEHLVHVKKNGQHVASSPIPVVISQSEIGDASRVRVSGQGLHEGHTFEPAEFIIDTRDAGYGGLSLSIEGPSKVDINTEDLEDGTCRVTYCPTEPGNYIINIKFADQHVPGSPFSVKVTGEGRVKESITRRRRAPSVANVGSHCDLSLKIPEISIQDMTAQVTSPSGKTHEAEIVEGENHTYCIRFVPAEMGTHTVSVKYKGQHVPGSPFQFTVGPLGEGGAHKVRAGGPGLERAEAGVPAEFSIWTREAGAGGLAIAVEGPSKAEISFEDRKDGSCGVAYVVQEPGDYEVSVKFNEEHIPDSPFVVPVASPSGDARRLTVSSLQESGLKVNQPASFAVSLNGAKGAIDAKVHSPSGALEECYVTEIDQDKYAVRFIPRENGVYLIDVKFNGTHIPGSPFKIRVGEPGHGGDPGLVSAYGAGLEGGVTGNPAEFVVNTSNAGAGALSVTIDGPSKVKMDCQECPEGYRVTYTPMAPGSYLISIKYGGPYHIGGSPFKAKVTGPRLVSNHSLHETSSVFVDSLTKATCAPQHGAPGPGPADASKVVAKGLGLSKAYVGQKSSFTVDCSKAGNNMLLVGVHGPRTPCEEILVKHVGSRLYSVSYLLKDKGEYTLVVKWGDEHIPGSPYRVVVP
# [4] = low dose naltrexone (e.g. less than 10 mg); cited from earlier work
# [5] = tested on: Restless Leg Syndrome (RLS); details: RLS treated with D2/D3 agonists pramipexole or ropinirole; Philips Respironics Actigraphy; see U.S. Ser. No. 12/603,235; cited from earlier work
smiles,measurement,setting,value
"O=C1CCc2ccc(OCCCCN3CCN(c4cccc(Cl)c4Cl)CC3)cc2N1 [aripiprazole, 7-{4-[4-(2,3-Dichlorophenyl)piperazin-1-yl]butoxy}-3,4-dihydroquinolin-2(1H)-one]",earlier response of depression,"[1]; Patient #1, in the past, before naltrexone",transiently responded
"O=C1CC[C@@]2(O)[C@H]3Cc4ccc(O)c5c4[C@@]2(CCN3CC2CC2)[C@H]1O5 [naltrexone, 17-(cyclopropylmethyl)-4,5α-epoxy-3,14-dihydroxymorphinan-6-one]",time to remission after initiating,"[1]; Patient #1, about 1 mg naltrexone daily",About one
same,duration of maintained remission,"[1]; Patient #1, adjunctive naltrexone 1 mg daily, continuing to present",more than 6 months
same,duration of maintained response,[1]; Patient #2,over 2 years
same,time to response,[1]; Patient #2,≤ 2 weeks
same,attention,"[1]; Patient #3, Attention Deficit Disorder, naltrexone 1 mg added, within days",much improved
same,adverse effects reported,"[1]; Patient #3, naltrexone 1 mg",no adverse effects
same,mood response,"[1]; Patient #3, naltrexone 1 mg added to s-citalopram 15 mg and dextro-amphetamine, within days",marked lifting of mood
same,duration of observation remaining euthymic,[1]; Patient #4,more than two
same,time to remission,[1]; Patient #5,two
same,duration of improvement,"[1]; Patient #5, and continuing",five
same,time to response,[1]; Patient #6,one
same,time to response,[1]; Patient #7,three
same,"rates of response on all outcome measures (HAM-D-17, HAM-D-28, MADRS-10, MADRS-15, CGI-S, CGI-I)","[2]; 1 mg bid, on antidepressant regimen containing a pro-dopaminergic agent, versus placebo, three weeks",higher rates of response
same,persistence of response,"[2]; 1 mg bid, patients on active drug followed six weeks",continued during the entire six week trial period
same,"Quality of Life, Enjoyment, and Satisfaction Questionnaire (Q-LES-Q) score",[2]; compared to placebo controls,greater improvement
same,Sheehan Disability Scale (SDS) score,[2]; compared to placebo controls,greater improvement
same,Kd,[3],< 5 pM
same,effects of opioid agonists,[4],enhance the effects of opioid agonists
same,control of periodic limb movements of sleep,[5],equivalent control of limb movements at one-half the prior dose of D2/D3 agonists
"CCCN[C@H]1CCc2nc(N)sc2C1 [pramipexole, (S)—N^6-propyl-4,5,6,7-tetrahydro-1,3-benzothiazole-2,6-diamine]",benefit in depression before naltrexone,"[1]; Patient #8, pramipexole without naltrexone",limited benefit
